The source of these data is patent US6376670B1, “Quinoline-indole antimicrobial agents, uses and compositions related thereto” (Sepracor Inc., priority 1997, dated 2002).

What all share (assay): Determination of MIC values (BHI broth, 96 well microtiter plate)
Common to all, as to assay type: cell-based

One experiment concerns Streptococcus pneumoniae. Particulars: BHI broth, 37° C., about 16 hours; for MIC: Streptococcus pneumoniae, read-out: MIC S. pneu. The essentials:
(§1)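 MIC was read as the lowest drug concentration without observable growth after roughly 16 h at 37 °C under about 7–10% CO2. Wells held BHI broth with compound at final 25–0.39 μg/mL (1:100 from DMSO dilutions). Each well was inoculated at 10^5–10^6 cells/mL.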

The subject of experiment [1] is methicillin-resistant Staphylococcus aureus (MRSA). Particulars: BHI broth, 37° C., about 16 hours; for MIC: Staphylococcus aureus, MRSA, 16 h, read-out: MIC MRSA. The gist of the method:
as §1

The subject of experiment [2] is vancomycin-resistant Enterococcus spp. (VRE). Particulars: BHI broth, 37° C., about 16 hours; for MIC: Enterococcus, VRE, 16 h, read-out: MIC VREF. The essentials:
as §1

Molecules are shown by their SMILES.

In general, MIC refers to the lowest concentration that inhibits growth of the organism.

For `Clc1ccc2c(Cl)cc(-c3c[nH]c4ccc(Cl)cc34)nc2c1` [Example 475], the minimal inhibitory concentration (MIC) (in the experiment with Streptococcus pneumoniae; in experiment [1]; in experiment [2]) was < 7 µg/mL throughout.

As for `Cc1cccc2c(-c3cc(Cl)c4ccc(Cl)cc4n3)c[nH]c12` [Example 476], the minimal inhibitory concentration (MIC) in the experiment on Streptococcus pneumoniae was < 25 µg/mL; in experiment [1] it was > 25 µg/mL; in experiment [2], > 25 µg/mL.

Regarding `Clc1ccc2c(Cl)cc(-c3c[nH]c4ccc(OCc5ccccc5)cc34)nc2c1` [Example 477], the minimum inhibitory concentration (MIC) in the experiment on Streptococcus pneumoniae is < 7 µg/mL; in experiment [1], < 7 µg/mL; in experiment [2], > 25 µg/mL.

As for `Cc1ccc2ccc(-c3c[nH]c4cc(F)ccc34)nc2c1` [Example 478], the MIC (in the experiment on Streptococcus pneumoniae; in experiment [1]; in experiment [2]) was > 25 µg/mL throughout.

As for `COc1ccc2[nH]cc(-c3ccc4ccc(C)cc4n3)c2c1` [Example 479], the minimal inhibitory concentration (MIC) in the experiment on Streptococcus pneumoniae is < 25 µg/mL; in experiment [1] it was > 25 µg/mL; in experiment [2], > 25 µg/mL.

On to `COc1ccc2nc(-c3c[nH]c4ccccc34)ccc2c1` [Example 480], for which the MIC (in the experiment on Streptococcus pneumoniae; in experiment [1]; in experiment [2]) was > 25 µg/mL in each case.

In the case of `Cc1ccc2nc(-c3c[nH]c4ccccc34)ccc2c1` [Example 481], the minimal inhibitory concentration (MIC) (in the experiment on Streptococcus pneumoniae; in experiment [1]; in experiment [2]) was > 25 µg/mL in each case.

Consider `Clc1ccc2c(Cl)cc(-c3c[nH]c4ccccc34)nc2c1` [Example 482], for which the MIC (in the experiment with Streptococcus pneumoniae; in experiment [1]; in experiment [2]) was < 7 µg/mL in each case.

As to `NC(=O)c1cc(-c2c[nH]c3ccc(Br)cc23)nc2ccc(C#CCN3CCCCC3)cc12` [Example 483], the MIC (in the experiment with Streptococcus pneumoniae; in experiment [1]; in experiment [2]) was < 7 µg/mL each time.

On to `Clc1ccc2nc(-c3c[nH]c4ccc(Cl)cc34)ccc2c1` [Example 484], for which, in the experiment on Streptococcus pneumoniae, the “MIC S. pneu” value is < 7 µg/mL. The minimal inhibitory concentration (MIC) is < 7 µg/mL in experiment [1] and > 25 µg/mL in experiment [2].

Regarding `COc1ccc(NC(=O)c2cc(-c3c[nH]c4ccc(Br)cc34)nc3ccc(C#CCN4CCCCC4)cc23)cc1` [Example 485], the MIC is < 25 µg/mL in the experiment on Streptococcus pneumoniae, < 7 µg/mL in experiment [1] and > 25 µg/mL in experiment [2].

For the compound `COC(=O)c1cc(-c2c[nH]c3ccc(Br)cc23)nc2cc(F)ccc12` [Example 486], the minimum inhibitory concentration (MIC) (with Streptococcus pneumoniae; in experiment [1]; in experiment [2]) was < 7 µg/mL in each case.

Turning to `NCCNC(=O)c1cc(-c2c[nH]c3ccc(Br)cc23)nc2cc(Cl)ccc12` [Example 487], the minimal inhibitory concentration (MIC) (in the experiment on Streptococcus pneumoniae; in experiment [1]; in experiment [2]) was < 7 µg/mL each time.

Turning to `OCc1cc(-c2c[nH]c3ccc(Br)cc23)nc2cc(F)ccc12` [Example 490], the “MIC S. pneu” value against Streptococcus pneumoniae was < 7 µg/mL. Also, the “MIC MRSA” value in experiment [1] is < 7 µg/mL. Besides, in experiment [2], the “MIC VREF” value is >25 µg/mL.

`OCc1cc(-c2c[nH]c3ccc(Br)cc23)nc2ccc(Cl)cc12` [Example 491]: the “MIC S. pneu” value in the experiment on Streptococcus pneumoniae was < 7 µg/mL. Besides, in experiment [1], the “MIC MRSA” value is < 7 µg/mL. Further, the “MIC VREF” value in experiment [2] was >25 µg/mL.

Consider `OCc1cc(-c2c[nH]c3ccc(Br)cc23)nc2cc(Cl)ccc12` [Example 492], for which, in the experiment with Streptococcus pneumoniae, the “MIC S. pneu” value was < 7 µg/mL. For the same compound, the “MIC MRSA” value in experiment [1] is < 7 µg/mL. Also, the “MIC VREF” value in experiment [2] was <25 µg/mL.

Regarding `NCc1ccc(CNC(=O)c2cc(-c3c[nH]c4cc(F)ccc34)nc3cc(F)ccc23)cc1` [Example 493], the minimum inhibitory concentration (MIC) (in the experiment on Streptococcus pneumoniae; in experiment [1]; in experiment [2]) was < 25 µg/mL throughout.

For the compound `NCc1cccc(CNC(=O)c2cc(-c3c[nH]c4cc(F)ccc34)nc3cc(F)ccc23)c1` [Example 494], the minimal inhibitory concentration (MIC) (in the experiment with Streptococcus pneumoniae; in experiment [1]; in experiment [2]) was < 7 µg/mL in each case.

`NCCCNC(=O)c1cc(-c2c[nH]c3cc(F)ccc23)nc2cc(F)ccc12` [Example 495]: the MIC was < 25 µg/mL with Streptococcus pneumoniae, < 25 µg/mL in experiment [1] and > 25 µg/mL in experiment [2].

Consider `NCCCCNC(=O)c1cc(-c2c[nH]c3cc(F)ccc23)nc2cc(F)ccc12` [Example 496], for which the MIC was < 25 µg/mL in the experiment with Streptococcus pneumoniae, < 25 µg/mL in experiment [1] and > 25 µg/mL in experiment [2].

With `NCCCCCNC(=O)c1cc(-c2c[nH]c3cc(F)ccc23)nc2cc(F)ccc12` [Example 497], the MIC (with Streptococcus pneumoniae; in experiment [1]; in experiment [2]) was < 25 µg/mL each time.

For `O=C(c1cc(-c2c[nH]c3cc(F)ccc23)nc2cc(F)ccc12)N1CCNCC1` [Example 498], the results for the MIC (in the experiment on Streptococcus pneumoniae; in experiment [1]; in experiment [2]) were < 25 µg/mL, < 25 µg/mL and > 25 µg/mL, respectively.

On to `CN(C)CCN(C)C(=O)c1cc(-c2c[nH]c3ccc(Br)cc23)nc2ccc(I)cc12` [Example 499], for which the MIC (with Streptococcus pneumoniae; in experiment [1]; in experiment [2]) was < 7 µg/mL throughout.

For the compound `CNCCN(C)C(=O)c1cc(-c2c[nH]c3ccc(Br)cc23)nc2ccc(Cl)cc12` [Example 500], the minimal inhibitory concentration (MIC) (in the experiment on Streptococcus pneumoniae; in experiment [1]; in experiment [2]) was < 7 µg/mL each time.

Take `CNCCN(C)C(=O)c1cc(-c2c[nH]c3ccc(Br)cc23)nc2cc(Cl)ccc12` [Example 501]: the minimum inhibitory concentration (MIC) (in the experiment with Streptococcus pneumoniae; in experiment [1]; in experiment [2]) was < 7 µg/mL in each case.

Turning to `CNCCN(C)C(=O)c1cc(-c2c[nH]c3ccc(Br)cc23)nc2ccc(I)cc12` [Example 502], the minimum inhibitory concentration (MIC) (in the experiment on Streptococcus pneumoniae; in experiment [1]; in experiment [2]) was < 7 µg/mL throughout.

Consider `Clc1ccc2nc(-c3c[nH]c4ccc(Br)cc34)c3c(c2c1)OCCC3` [Example 503], for which the MIC with Streptococcus pneumoniae is < 25 µg/mL; in experiment [1], < 7 µg/mL; in experiment [2], > 25 µg/mL.

On to `CN(C)CCN(C)C(=O)c1cc(-c2c[nH]c3ccc(Br)cc23)nc2cc(Cl)ccc12` [Example 505], for which the MIC (with Streptococcus pneumoniae; in experiment [1]; in experiment [2]) was < 7 µg/mL throughout.

With `CNCCN(C)C(=O)c1cc(-c2cn(C)c3ccc(Br)cc23)nc2cc(Cl)ccc12` [Example 506], the MIC (in the experiment with Streptococcus pneumoniae; in experiment [1]; in experiment [2]) was < 7 µg/mL in each case.

Consider `CN(C)CCN(C)C(=O)c1cc(-c2cn(C)c3ccc(Br)cc23)nc2cc(Cl)ccc12` [Example 507], for which the MIC (with Streptococcus pneumoniae; in experiment [1]; in experiment [2]) was < 7 µg/mL throughout.

Regarding `Fc1ccc2c(CCl)cc(-c3c[nH]c4ccc(Br)cc34)nc2c1` [Example 508], the MIC (in the experiment on Streptococcus pneumoniae; in experiment [1]; in experiment [2]) was < 7 µg/mL throughout.

In the case of `NCc1cc(-c2c[nH]c3ccc(Br)cc23)nc2cc(F)ccc12` [Example 509], the minimal inhibitory concentration (MIC) (in the experiment on Streptococcus pneumoniae; in experiment [1]; in experiment [2]) was < 7 µg/mL each time.

Consider `NCc1cc(-c2c[nH]c3ccc(Br)cc23)nc2cc(Cl)ccc12` [Example 511], for which the MIC (in the experiment on Streptococcus pneumoniae; in experiment [1]; in experiment [2]) was < 7 µg/mL in each case.

Take `CN(C)CCN(C)C(=O)c1cc(-c2c[nH]c3ccc(Br)cc23)nc2cc(Cl)c(C#CCN3CCCCC3)cc12` [Example 512]: the minimum inhibitory concentration (MIC) (with Streptococcus pneumoniae; in experiment [1]; in experiment [2]) was < 7 µg/mL each time.

On to `CNCCN(C)C(=O)c1cc(-c2c[nH]c3ccc(Br)cc23)nc2cc(Cl)c(C#CCN3CCCCC3)cc12` [Example 513], for which the MIC (in the experiment with Streptococcus pneumoniae; in experiment [1]; in experiment [2]) was < 7 µg/mL throughout.

For the compound `COc1ccc(NC(=O)NCc2cc(-c3c[nH]c4ccc(Br)cc34)nc3cc(Cl)ccc23)cc1` [Example 514], the MIC in the experiment on Streptococcus pneumoniae is < 7 µg/mL; in experiment [1], < 7 µg/mL; in experiment [2] it was > 25 µg/mL.

Regarding `O=C(O)c1cc(-c2c[nH]c3ccc(Br)cc23)nc2cc(Cl)c(C#CCN3CCCCC3)cc12` [Example 516], the MIC in the experiment with Streptococcus pneumoniae is < 7 µg/mL; in experiment [1], < 7 µg/mL; in experiment [2] it was < 25 µg/mL.

Consider `Brc1ccc2[nH]cc(-c3nc4ccc(C#CCN5CCCCC5)cc4c4c3CCO4)c2c1` [Example 517], for which the figures for the MIC (in the experiment with Streptococcus pneumoniae; in experiment [1]; in experiment [2]) were < 7 µg/mL, < 7 µg/mL and > 25 µg/mL, respectively.

Consider `OCc1cc(-c2c[nH]c3ccc(Br)cc23)nc2cc(Cl)c(C#CCN3CCCCC3)cc12` [Example 518], for which the MIC (in the experiment with Streptococcus pneumoniae; in experiment [1]; in experiment [2]) was < 7 µg/mL each time.

As for `CC(C)CNC(=O)c1cc(-c2c[nH]c3ccc(Br)cc23)nc2ccc(C#CCN3CCCCC3)cc12` [Example 519], the MIC is < 7 µg/mL in the experiment on Streptococcus pneumoniae, < 7 µg/mL in experiment [1] and > 25 µg/mL in experiment [2].

On to `CN(CC[N+](C)(C)C)C(=O)c1cc(-c2c[nH]c3ccc(Br)cc23)nc2cc(Cl)ccc12` [Example 520], for which the MIC (in the experiment with Streptococcus pneumoniae; in experiment [1]; in experiment [2]) was < 7 µg/mL throughout.

Turning to `CC(C)(C)NC(=O)NCc1cc(-c2c[nH]c3ccc(Br)cc23)nc2cc(Cl)ccc12` [Example 521], the values for the MIC (with Streptococcus pneumoniae; in experiment [1]; in experiment [2]) were < 7 µg/mL, < 7 µg/mL and > 25 µg/mL, respectively.

`N#CCc1cc(-c2c[nH]c3ccc(Br)cc23)nc2cc(Cl)ccc12` [Example 522]: the minimum inhibitory concentration (MIC) is < 7 µg/mL in the experiment with Streptococcus pneumoniae, < 7 µg/mL in experiment [1] and < 25 µg/mL in experiment [2].

For the compound `NCCNC(=O)c1cc(-c2c[nH]c3ccc(Br)cc23)nc2ccc(C#CCO)cc12` [Example 523], the MIC (in the experiment with Streptococcus pneumoniae; in experiment [1]; in experiment [2]) was < 7 µg/mL each time.

Take `O=C(NCc1cc(-c2c[nH]c3ccc(Br)cc23)nc2cc(Cl)ccc12)NC1CCCCC1` [Example 524]: the minimum inhibitory concentration (MIC) (in the experiment on Streptococcus pneumoniae; in experiment [1]; in experiment [2]) was < 7 µg/mL throughout.
